From patent US6376502B1, “Osteoporosis compounds” (priority 1997, dated 2002)

Columns and labels:
[1] = tested on: Bone Morphogenetic Protein 7 (BMP-7) expression in 293S cells transfected with EP2; experiment: Kidney regeneration assay: BMP-7 expression by Northern blot in EP2 293S cells; assay type: cell-based, human; details: 10^-6M, RNA at 8, 16 and 24 hours, time dependent
Procedure: (§1) 293S and EP2 293S cells are grown in Dulbecco's Modified Egale medium (DMEM, Gibco, BRL; Gaithersburg, Md.). […] Cells are harvested and RNA is extracted at 8, 16 and 24 hours. Northern blot analysis of total ([…]) is carried out by probing the blots with ^32P-labeled BMP-7 probe. The blots are normalized for RNA loading by hybridization with ^32P-labeled 18s ribosomal RNA probe. […] Given the known role of BMP-7 in kidney regeneration and the ability of an prostaglandin agonist to induce BMP-7 expression in 293S kidney cells in a time and receptor specific manner indicates a role for prostaglandin agonist in kidney regeneration.

[2] = tested on: Bone Morphogenetic Protein 7 (BMP-7) expression in wild type 293S cells; experiment: Kidney regeneration assay: BMP-7 expression by Northern blot in wild type 293S cells; assay type: cell-based, human; details: parental 293S cell line, 10^-6M, RNA at 8, 16 and 24 hours
Procedure: as §1

## CCCCC[C@H](O)/C=C/[C@H]1[C@H](O)CC(=O)[C@@H]1C/C=C\CCCC(=O)O [PGE2, Prostaglandin E2]
[1]
  induction of BMP-7 expression: induce the expression of BMP-7
[2]
  induction of BMP-7 expression: generally not observed
